According to ChEMBL document CHEMBL5236635, “Structure-Based Drug Design and Synthesis of Novel N-Aryl-2,4-bithiazole-2-amine CYP1B1-Selective Inhibitors in Overcoming Taxol Resistance in A549 Cells” (J Med Chem, 2022):

Tests used:
Cytochrome P450 1B1 = molecular target: T1, Cytochrome P450 1B1 (Homo sapiens, UniProt Q16678); assay: Inhibition of recombinant human CYP1B1 using 7-ethyl-0-resorufin as substrate incubated for 30 mins in presence of NADPH by EROD assay
T1 sequence (Q16678 whole entry): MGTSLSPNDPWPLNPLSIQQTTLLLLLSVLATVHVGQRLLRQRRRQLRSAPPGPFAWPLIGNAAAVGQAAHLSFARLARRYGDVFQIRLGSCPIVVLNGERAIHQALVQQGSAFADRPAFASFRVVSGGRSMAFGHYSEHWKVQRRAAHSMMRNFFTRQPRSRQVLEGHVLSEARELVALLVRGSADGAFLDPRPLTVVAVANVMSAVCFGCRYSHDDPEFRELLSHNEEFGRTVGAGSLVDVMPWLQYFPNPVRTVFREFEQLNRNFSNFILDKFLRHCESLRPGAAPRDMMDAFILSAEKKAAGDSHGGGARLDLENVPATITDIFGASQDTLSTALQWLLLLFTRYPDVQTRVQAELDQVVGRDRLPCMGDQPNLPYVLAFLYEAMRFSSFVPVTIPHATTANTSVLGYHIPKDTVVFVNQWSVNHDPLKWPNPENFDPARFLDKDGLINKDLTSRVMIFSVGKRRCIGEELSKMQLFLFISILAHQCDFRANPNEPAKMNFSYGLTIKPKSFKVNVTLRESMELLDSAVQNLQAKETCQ

Cytochrome P450 1A1 = molecular target: T2, Cytochrome P450 1A1 (Homo sapiens, UniProt P04798); assay: Inhibition of recombinant human CYP1A1 using 7-ethyl-0-resorufin as substrate incubated for 30 mins in presence of NADPH by EROD assay
T2 sequence (P04798 whole entry): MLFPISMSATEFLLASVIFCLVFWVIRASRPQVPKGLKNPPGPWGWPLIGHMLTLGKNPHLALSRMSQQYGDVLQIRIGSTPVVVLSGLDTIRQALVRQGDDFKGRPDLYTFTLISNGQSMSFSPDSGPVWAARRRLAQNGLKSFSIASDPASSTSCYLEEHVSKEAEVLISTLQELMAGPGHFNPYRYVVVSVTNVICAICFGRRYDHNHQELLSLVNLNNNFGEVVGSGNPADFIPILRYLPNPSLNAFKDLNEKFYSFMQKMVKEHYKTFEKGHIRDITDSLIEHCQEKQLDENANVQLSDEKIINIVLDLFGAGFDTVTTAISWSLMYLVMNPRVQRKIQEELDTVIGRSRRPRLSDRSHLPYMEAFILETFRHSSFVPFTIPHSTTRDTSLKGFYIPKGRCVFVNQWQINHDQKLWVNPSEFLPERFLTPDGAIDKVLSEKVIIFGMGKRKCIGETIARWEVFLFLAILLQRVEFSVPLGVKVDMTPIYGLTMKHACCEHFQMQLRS

CYP1B1 = molecular target: T3, CYP1B1 (Homo sapiens, UniProt Q16678); assay: Inhibition of recombinant human CYP1B1 assessed as inhibition ratio at 100 nM using 7-ethyl-0-resorufin as substrate incubated for 30 mins in presence of NADPH by EROD assay relative to control; settings: recombinant human CYP1B1, probe 7-ethyl-0-resorufin
T3 sequence (Q16678 whole entry): T1 sequence (Q16678 whole entry)

Cytochrome P450 1A2 = molecular target: T4, Cytochrome P450 1A2 (Homo sapiens, UniProt P05177); assay: Inhibition of recombinant human CYP1A2 using 7-ethyl-0-resorufin as substrate incubated for 30 mins in presence of NADPH by EROD assay
T4 sequence (P05177 whole entry): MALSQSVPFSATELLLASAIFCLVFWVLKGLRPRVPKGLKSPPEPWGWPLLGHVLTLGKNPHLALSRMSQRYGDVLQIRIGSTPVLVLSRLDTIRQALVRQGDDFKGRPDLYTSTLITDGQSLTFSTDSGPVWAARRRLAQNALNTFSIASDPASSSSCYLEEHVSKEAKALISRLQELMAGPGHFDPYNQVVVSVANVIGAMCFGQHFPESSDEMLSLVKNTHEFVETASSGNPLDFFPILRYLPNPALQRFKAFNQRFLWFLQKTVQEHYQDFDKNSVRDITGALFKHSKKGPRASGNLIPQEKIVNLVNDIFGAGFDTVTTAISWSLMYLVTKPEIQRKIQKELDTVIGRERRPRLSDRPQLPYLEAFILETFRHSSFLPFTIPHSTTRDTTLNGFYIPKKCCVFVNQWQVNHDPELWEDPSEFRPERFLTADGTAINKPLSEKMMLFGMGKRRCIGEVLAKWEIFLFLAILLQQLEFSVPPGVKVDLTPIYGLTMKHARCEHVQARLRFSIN

CYP1A1 versus CYP1B1 = assay: Selectivity index, ratio of IC50 for inhibition of recombinant human CYP1A1 to IC50 for inhibition of recombinant human CYP1B1; settings: recombinant human CYP1A1 and recombinant human CYP1B1
CYP1A2 versus CYP1B1 = assay: Selectivity index, ratio of IC50 for inhibition of recombinant human CYP1A2 to IC50 for inhibition of recombinant human CYP1B1; settings: recombinant human CYP1A2 and recombinant human CYP1B1

IC50 (Cytochrome P450 1B1) [µM]	IC50 (Cytochrome P450 1A1) [µM]	inhibition at 0.5 h, 0.1 µM (CYP1B1) [%]	IC50 (Cytochrome P450 1A2) [µM]	Structure (SMILES)	selectivity ratio (CYP1A1 versus CYP1B1)	selectivity ratio (CYP1A2 versus CYP1B1)
0.00392	0.222			COc1cc(Nc2nc(-c3nc(-c4ccccc4)cs3)cs2)cc(OC)c1		
0.0357	0.957	92		Fc1ccc(Nc2nc(-c3nccs3)cs2)cc1		
		93.4		c1cnc2ccc(Nc3nc(-c4nccs4)cs3)cc2c1		
		43.7		c1csc(-c2csc(Nc3ccc(N4CCNCC4)cc3)n2)n1		
		56.4		c1ccc(Nc2nc(-c3nccs3)cs2)cc1		
0.0076	0.262	90		Clc1cccc(Nc2nc(-c3nccs3)cs2)c1		
		82		c1csc(-c2csc(Nc3ccc(-n4cncn4)cc3)n2)n1		
0.0159	0.0224		2.55	c1cncc(-c2csc(-c3csc(Nc4ccc(N5CCOCC5)cc4)n3)n2)c1	1.4	160
0.567	0.21		0.0316	COc1ccc(-c2csc(-c3csc(Nc4cccc(F)c4)n3)n2)cc1OC	0.37	0.06
0.0127	> 10		> 10	COc1cc(Nc2nc(-c3nc(-c4ccc(Cl)cc4F)cs3)cs2)cc(OC)c1		
0.203	0.276		1.26	Cc1sc(-c2csc(Nc3ccc(N4CCOCC4)cc3)n2)nc1-c1ccncc1	1.36	6.2
0.0167	0.552			COc1cc(Nc2nc(-c3nc(-c4cccc(C#N)c4)cs3)cs2)cc(OC)c1		
		36		c1cc(Nc2nc(-c3nccs3)cs2)c2cccnc2c1		
0.00649	1.27			Fc1cccc(Nc2nc(-c3nc(-c4ccccc4)cs3)cs2)c1		
0.0201	0.896			Clc1cc(Cl)cc(Nc2nc(-c3nc(-c4ccccc4)cs3)cs2)c1		
		73.9		Oc1ccc(Nc2nc(-c3nccs3)cs2)cc1		
0.00807	0.323		1.25	COc1cc(Nc2nc(-c3nc(-c4ccccc4Cl)cs3)cs2)cc(OC)c1	40	155
0.0648	0.388		0.913	COc1cc(Nc2nc(-c3nc(-c4ccccc4)c(C)s3)cs2)cc(OC)c1	5.98	14.1
0.00664	1.12			Clc1cc(Cl)cc(Nc2nc(-c3nc(-c4ccccc4Cl)cs3)cs2)c1		

IC50 (Cytochrome P450 1B1) [µM]	IC50 (Cytochrome P450 1A1) [µM]	inhibition at 0.5 h, 0.1 µM (CYP1B1) [%]	IC50 (Cytochrome P450 1A2) [µM]	Structure (SMILES)	selectivity ratio (CYP1A1 versus CYP1B1)	selectivity ratio (CYP1A2 versus CYP1B1)
0.0331	0.387		0.227	Clc1cc(Cl)cc(Nc2nc(-c3nc(-c4cccnc4)cs3)cs2)c1	11.7	6.85
		80		c1ccc2cc(Nc3nc(-c4nccs4)cs3)ccc2c1		
0.0295	0.0999		0.227	CCc1sc(-c2csc(Nc3cc(Cl)cc(Cl)c3)n2)nc1-c1ccccc1	3.39	7.69
		57.9		Nc1cccc(Nc2nc(-c3nccs3)cs2)c1		
0.0116	0.334		2.86	c1ccc(-c2csc(-c3csc(Nc4ccc(N5CCOCC5)cc4)n3)n2)cc1	28.9	247
0.0118	0.314			Fc1cccc(Nc2nc(-c3nc(-c4ccccn4)cs3)cs2)c1		
		92.4		c1cc(Nc2nc(-c3nccs3)cs2)cc(-n2ccnc2)c1		
		78.8		Clc1ccc(Nc2nc(-c3nccs3)cs2)nc1		
0.0862	0.524		> 10	COc1cc(Nc2nc(-c3nc(-c4ccccc4)c(-c4ccccc4)s3)cs2)cc(OC)c1	6.08	> 116
		81.5		N#Cc1ccc(Nc2nc(-c3nccs3)cs2)cc1		
		94.1		Fc1ccc(Nc2nc(-c3nccs3)cs2)cc1Cl		
		93.7		CC(=O)Nc1cccc(Nc2nc(-c3nccs3)cs2)c1		
0.000551	0.0303			Fc1cccc(Nc2nc(-c3nc(-c4cccnc4)cs3)cs2)c1		
		57.6		O=[N+]([O-])c1cccc(Nc2nc(-c3nccs3)cs2)c1		
		89.6		Fc1ccccc1Nc1nc(-c2nccs2)cs1		
0.153	4.46		0.312	c1cc(-c2csc(-c3csc(Nc4ccc(N5CCOCC5)cc4)n3)n2)ccn1	29.2	2.04
		72.8		Clc1ccccc1Nc1nc(-c2nccs2)cs1		
0.0513	0.823			COc1ccc(-c2csc(-c3csc(Nc4cc(OC)cc(OC)c4)n3)n2)cc1		
0.518	6.78			Fc1cccc(Nc2nc(-c3nc(-c4ccccc4)c(-c4ccccc4)s3)cs2)c1		

IC50 (Cytochrome P450 1B1) [µM]	IC50 (Cytochrome P450 1A1) [µM]	inhibition at 0.5 h, 0.1 µM (CYP1B1) [%]	IC50 (Cytochrome P450 1A2) [µM]	Structure (SMILES)	selectivity ratio (CYP1A1 versus CYP1B1)	selectivity ratio (CYP1A2 versus CYP1B1)
0.246	0.246			CCc1sc(-c2csc(Nc3cccc(F)c3)n2)nc1-c1ccccc1		
0.0111	0.82			COc1cc(Nc2nc(-c3nc(-c4cccc(F)c4)cs3)cs2)cc(OC)c1		
0.0129	0.11		5.06	Fc1ccccc1-c1csc(-c2csc(Nc3ccc(N4CCOCC4)cc3)n2)n1	8.48	392
	0.414	94.2		COc1cccc(Nc2nc(-c3nccs3)cs2)c1	5.39	
0.039	1.92		0.381	Clc1cc(Cl)cc(Nc2nc(-c3nc(-c4ccccc4)c(-c4ccccc4)s3)cs2)c1	49.3	9.77
0.0159	6.52			COc1cc(Nc2nc(-c3nc(-c4cccc(Cl)c4)cs3)cs2)cc(OC)c1		
1.61	0.169		1.56	Fc1ccc(-c2csc(-c3csc(Nc4ccc(N5CCOCC5)cc4)n3)n2)cc1	0.1	0.97
		51		CN1CCN(c2ccc(Nc3nc(-c4nccs4)cs3)cc2)CC1		
		78.9		COc1ccc(Nc2nc(-c3nccs3)cs2)cc1OC		
0.0651	> 10			COc1cc(Nc2nc(-c3nc(-c4ccc(F)cc4)cs3)cs2)cc(OC)c1		
> 1	> 10		> 10	Fc1cccc(Nc2nc(-c3nc(-c4ccc(Cl)cc4F)cs3)cs2)c1		
		78		COc1ccc(Nc2nc(-c3nccs3)cs2)cc1		
		72.8		Oc1cccc(Nc2nc(-c3nccs3)cs2)c1		
		75		Fc1ccc(Nc2nc(-c3nccs3)cs2)nc1		
		60		COc1ccccc1Nc1nc(-c2nccs2)cs1		
		41.3		O=[N+]([O-])c1ccc(Nc2nc(-c3nccs3)cs2)cc1		
0.534	> 10		0.995	Fc1cc(Cl)ccc1-c1csc(-c2csc(Nc3ccc(N4CCOCC4)cc3)n2)n1		1.86
		54		Nc1ccc(Nc2nc(-c3nccs3)cs2)cc1		
